Laboratory results published in patent US20230391770A1, “METTL3 INHIBITORY COMPOUNDS” (Storm Therapeutics Limited, priority 2020, published 2023).
pIC50: −log10 of the molar value.

Tests used:
METTL3/14 = METTL3/14 (Homo sapiens (Human), UniProt Q86U44); test: METTL3/14 methyltransferase biochemical assay (RapidFire mass spectrometry, METTL3_14 RFMS)
Protocol: The enzymatic assay was established to determine IC50 values for inhibition of RNA methyltransferase activity. The enzyme used was full-length his-tagged METTL3 co-expressed with full length FLAG-tagged METTL14 in a baculovirus expression system. […] The reaction was incubated for further 60 minutes at room temperature, and then quenched by the addition of 40 μL 7.5% TCA with two internal product standards (D4-SAH and ^13C10-SAH). After termination, plates were sealed, centrifuged and stored at 4° C. until analysis. […] RNA methyltransferase activity was measured label free using the RapidFireTM mass spectrometry (RF/MS) platform. Stopped and stable assay plates were analyzed on the Agilent RF300 integrated autosampler/solid-phase extraction (SPE) system coupled to an ABSciex 4000 mass spectrometer for the generation of the product S-adenosyl homocysteine (SAH) and normalized to the ratio of signal of the two internal product standards, respectively. Solvent A was water containing 0.1% (v/v) TCA. Solvent B was acetonitrile/0.1% ammonium acetate (8:2, v/v).

Caov-3 cells = test: Caov3 CTG proliferation assay (CellTiter-Glo); assay type: cell-based; conditions: Homo sapiens, 120 hours treatment, 30 μM top concentration
Protocol: (§1) Cell treatment and cell growth assessment: 18 hours post-seeding in white 384-Viewplate (6007480, PerkinElmer) at 1500 cells/well, Caov3 cells were treated for 120 hours with compounds inhibiting the METTL3/14 activity (10 serial semi-log dilutions, 30 μM as top concentration). Upon treatment, Coav-3 cells were incubated for 10 min at RT with the CellTiter-Glo reagent (G7571, Promega). Measurement of the luminescence signal was performed on a microplate reader (Ensight, PerkinElmer).

KASUMI-1 cells = test: Kasumi cell assay (CellTiter-Glo cell growth); assay type: cell-based; conditions: Homo sapiens, 120 hours treatment, 30 μM top concentration
Protocol: Cell culture: KASUMI-1 cells (ACC20, Leibniz-Institut DSMZ Deutsche Sammlung von Mikroorganismen und Zellkulturen GmbH) were grown in RPMI 1640 (31870-025, Gibco) supplemented with 20% fetal bovine serum (F1524, Gibco), 1 mM sodium pyruvate (11360-039, Gibco) and 2 mM Glutamax (35050-038, Gibco) in a 5% CO2 humidified incubator at 37° C.
as §1, with “KASUMI-1” for “18”, “were seeded” for “post-seeding”, “ultra-low attachment 384-well culture plate (MS-9384WZ, SBio)” for “white 384-Viewplate (6007480, PerkinElmer)”, “a final concentration of 250,000 cells/ml (35 μL/well) and” for “1500 cells/well, Caov3 cells were”, “Kasumi1” for “Coav-3”

Chain of METTL3/14 (Q86U44 whole entry): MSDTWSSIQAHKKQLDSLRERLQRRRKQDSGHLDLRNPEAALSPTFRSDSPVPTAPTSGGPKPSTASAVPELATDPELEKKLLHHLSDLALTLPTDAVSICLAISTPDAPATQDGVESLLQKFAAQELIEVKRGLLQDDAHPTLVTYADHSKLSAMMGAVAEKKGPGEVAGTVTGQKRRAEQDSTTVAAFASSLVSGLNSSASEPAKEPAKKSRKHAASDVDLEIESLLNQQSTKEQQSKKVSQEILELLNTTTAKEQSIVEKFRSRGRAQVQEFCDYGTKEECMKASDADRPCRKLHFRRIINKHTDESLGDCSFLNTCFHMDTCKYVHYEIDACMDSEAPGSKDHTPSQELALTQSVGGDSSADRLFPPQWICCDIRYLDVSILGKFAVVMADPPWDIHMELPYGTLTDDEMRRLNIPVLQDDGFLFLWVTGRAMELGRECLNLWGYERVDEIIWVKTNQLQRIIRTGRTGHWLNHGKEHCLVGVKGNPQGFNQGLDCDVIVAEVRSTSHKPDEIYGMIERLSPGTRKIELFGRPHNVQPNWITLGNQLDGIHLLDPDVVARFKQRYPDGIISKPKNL
Chain of METTL3/14 (Q9HCE5 whole entry partner): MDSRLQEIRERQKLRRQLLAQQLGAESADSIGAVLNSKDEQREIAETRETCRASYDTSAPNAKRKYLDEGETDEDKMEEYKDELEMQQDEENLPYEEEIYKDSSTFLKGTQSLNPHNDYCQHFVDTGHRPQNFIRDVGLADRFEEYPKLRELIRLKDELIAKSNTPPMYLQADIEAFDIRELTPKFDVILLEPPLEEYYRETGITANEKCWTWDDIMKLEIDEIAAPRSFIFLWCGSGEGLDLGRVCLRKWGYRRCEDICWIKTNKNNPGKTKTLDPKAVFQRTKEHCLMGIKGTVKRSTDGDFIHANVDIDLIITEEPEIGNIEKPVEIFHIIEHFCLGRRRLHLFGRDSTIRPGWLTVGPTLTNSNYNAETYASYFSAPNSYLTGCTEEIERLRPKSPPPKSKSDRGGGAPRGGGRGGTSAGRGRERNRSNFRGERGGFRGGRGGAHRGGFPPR

| SMILES | pIC50 (METTL3/14) | pIC50 (Caov-3 cells) | pIC50 (KASUMI-1 cells) |
| --- | --- | --- | --- |
| Fc1ncn2cccc(-c3cn(Cc4cn5cc(CNCC6CCC6)ccc5n4)nn3)c12 [Example 25, (cyclobutylmethyl)({2-[(4-{1-fluoroimidazo[1,5-a]pyridin-8-yl}-1H-1,2,3-triazol-1-yl)methyl]imidazo[1,2-a]pyridin-6-yl}methyl)amine] | 7.80 | 5.57 | 5.32 |
| c1cc(-c2cn(Cc3cn4cc(CNCC5CCC5)ccc4n3)nn2)c2nncn2c1 [Example 27, (cyclobutylmethyl)({2-[(4-{[1,2,4]triazolo[4,3-a]pyridin-8-yl}-1H-1,2,3-triazol-1-yl)methyl]imidazo[1,2-a]pyridin-6-yl}methyl)amine] | 6.63 |  | 4.52 |
| c1cc(-c2cn(Cc3cn4cc(CN5CC6(CCC6)C5)ccc4n3)nn2)c2cncn2c1 [Example 29, 2-({2-[(4-{imidazo[1,5-a]pyridin-8-yl}-1H-1,2,3-triazol-1-yl)methyl]imidazo[1,2-a]pyridin-6-yl}methyl)-2-azaspiro[3.3]heptane] | 8.19 | 6.33 | 5.80 |
| COc1cc(-c2cn(Cc3cn4cc(CN5CC6(CCC6)C5)ccc4n3)nn2)c2cncn2c1 [Example 30, 2-({2-[(4-{6-methoxyimidazo[1,5-a]pyridin-8-yl}-1H-1,2,3-triazol-1-yl)methyl]imidazo[1,2-a]pyridin-6-yl}methyl)-2-azaspiro[3.3]heptane] | 8.21 | 6.22 | 5.68 |
| COc1cnc(C#N)c(-c2cn(Cc3cn4cc(CN5CCC(C)(C)CC5)ccc4n3)nn2)c1 [Example 39, 3-[1-({6-[(4,4-dimethylpiperidin-1-yl)methyl]imidazo[1,2-a]pyridin-2-yl}methyl)-1H-1,2,3-triazol-4-yl]-5-methoxypyridine-2-carbonitrile] |  | 5.26 | 5.21 |
| COc1cnc(C#N)c(-c2cn(Cc3cn4cc(CNCC56CC(F)(C5)C6)ccc4n3)nn2)c1 [Example 41, 3-{1-[(6-{[({3-fluorobicyclo[1.1.1]pentan-1-yl}methyl)amino]methyl}imidazo[1,2-a]pyridin-2-yl)methyl]-1H-1,2,3-triazol-4-yl}-5-methoxypyridine-2-carbonitrile] | 7.80 | 5.39 | 5.58 |
| COc1cncc(-c2cn(Cc3cn4cc(CNCC56CC(F)(C5)C6)ccc4n3)nn2)n1 [Example 44, ({3-fluorobicyclo[1.1.1]pentan-1-yl}methyl)[(2-{[4-(6-methoxypyrazin-2-yl)-1H-1,2,3-triazol-1-yl]methyl}imidazo[1,2-a]pyridin-6-yl)methyl]amine] |  | 5.61 | 5.70 |
| COc1cncc(-c2cn(Cc3cn4cc(CNCC56CC(F)(C5)C6)ccc4n3)nn2)c1 [Example 45, ({3-fluorobicyclo[1.1.1]pentan-1-yl}methyl)[(2-{[4-(5-methoxypyridin-3-yl)-1H-1,2,3-triazol-1-yl]methyl}imidazo[1,2-a]pyridin-6-yl)methyl]amine] |  | 6.04 | 5.60 |
| COc1ccncc1-c1cn(Cc2cn3cc(CNCC45CC(F)(C4)C5)ccc3n2)nn1 [Example 47, ({3-fluorobicyclo[1.1.1]pentan-1-yl}methyl)[(2-{[4-(4-methoxypyridin-3-yl)-1H-1,2,3-triazol-1-yl]methyl}imidazo[1,2-a]pyridin-6-yl)methyl]amine] | 7.89 | 5.86 | 5.35 |

The next lines start with results.

| pIC50 (METTL3/14) | SMILES | pIC50 (Caov-3 cells) | pIC50 (KASUMI-1 cells) |
| --- | --- | --- | --- |
| 8.21 | O=C(NCc1cn2cc(CNCC34CC(F)(C3)C4)ccc2n1)c1cc(=O)n2ccsc2n1 [Example 19, N-[(6-{[({3-fluorobicyclo[1.1.1]pentan-1-yl}methyl)amino]methyl}imidazo[1,2-a]pyridin-2-yl)methyl]-5-oxo-5H-[1,3]thiazolo[3,2-a]pyrimidine-7-carboxamide] | 6.44 | 5.87 |
| 8.21 | COc1cc(-c2cn(Cc3cn4cc(CNCC5CCC5)ccc4n3)nn2)c2cncn2c1 [Example 22, (cyclobutylmethyl)({2-[(4-{6-methoxyimidazo[1,5-a]pyridin-8-yl}-1H-1,2,3-triazol-1-yl)methyl]imidazo[1,2-a]pyridin-6-yl}methyl)amine] | 6.52 | 5.94 |
| 8.21 | c1cc(-c2cn(Cc3cn4cc(CNCC5CCC5)ccc4n3)nn2)c2cncn2c1 [Example 23, (cyclobutylmethyl)({2-[(4-{imidazo[1,5-a]pyridin-8-yl}-1H-1,2,3-triazol-1-yl)methyl]imidazo[1,2-a]pyridin-6-yl}methyl)amine] | 6.05 | 5.53 |
| 8.21 | COc1cc(-c2cn(Cc3cn4cc(CNCC56CC(F)(C5)C6)ccc4n3)nn2)c2cncn2c1 [Example 26, ({3-fluorobicyclo[1.1.1]pentan-1-yl}methyl)({2-[(4-{6-methoxyimidazo[1,5-a]pyridin-8-yl}-1H-1,2,3-triazol-1-yl)methyl]imidazo[1,2-a]pyridin-6-yl}methyl)amine] | 6.96 | 6.35 |
| 8.21 | COc1cc(-c2cn(Cc3cn4cc(CNCC56CC(C5)C6)ccc4n3)nn2)c2cncn2c1 [Example 28, ({bicyclo[1.1.1]pentan-1-yl}methyl)({2-[(4-{6-methoxyimidazo[1,5-a]pyridin-8-yl}-1H-1,2,3-triazol-1-yl)methyl]imidazo[1,2-a]pyridin-6-yl}methyl)amine] | 6.99 | 6.50 |
| 8.22 | N#Cc1ncc(N2CCOCC2)cc1-c1cn(Cc2cn3cc(CNCC45CC(F)(C4)C5)ccc3n2)nn1 [Example 51, 3-{1-[(6-{[({3-fluorobicyclo[1.1.1]pentan-1-yl}methyl)amino]methyl}imidazo[1,2-a]pyridin-2-yl)methyl]-1H-1,2,3-triazol-4-yl}-5-(morpholin-4-yl)pyridine-2-carbonitrile] | 5.87 | 5.73 |
| 8.22 | FC12CC(CNCc3ccc4nc(Cn5cc(-c6cncc(N7CCOCC7)c6)nn5)cn4c3)(C1)C2 [Example 52, ({3-fluorobicyclo[1.1.1]pentan-1-yl}methyl)({[2-({4-[5-(morpholin-4-yl)pyridin-3-yl]-1H-1,2,3-triazol-1-yl}methyl)imidazo[1,2-a]pyridin-6-yl]methyl})amine] | 6.27 | 5.79 |
